In test [1] the test system is human clasp fibers. As to the kind of experiment: carbachol induced contraction and relaxation of muscle strips, with potential inhibitors of relaxation. In kind it is cell-based. As to conditions: for inhibition of carbachol induced relaxation: mecamylamine 10 μM, hexamethonium 100 μM, L-NAME 50 μM.
The subject of test [2] is human sling fibers. Described as above. As to conditions: for inhibition of carbachol induced relaxation: mecamylamine 10 μM, hexamethonium 100 μM. In kind it is cell-based.
The test system of test [3] is human LEC fibers. As to the kind of experiment: nicotine or choline induced relaxation of bethanechol pre-contracted muscle strips. Format: cell-based.
Test [4] has as its system human clasp fibers. The test is described as above. In kind it is cell-based.
In test [5] the test system is human sling fibers. The description is as above. In kind it is cell-based.
Test [6] has as its system human LEC fibers. As to the kind of experiment: carbachol induced contraction and relaxation of muscle strips, with potential inhibitors of relaxation. In kind it is cell-based. As to conditions: for inhibition of carbachol induced relaxation: mecamylamine 10 μM, hexamethonium 100 μM, L-NAME 50 μM.
The test system of test [7] is human MEC fibers. Nature of the test: carbachol cumulative concentration response of muscle strips. In kind it is cell-based. An excerpt:
(§1) Beginning at the cardiac notch, the sling fiber complex was separated from the underlying submucosa by sharp dissection and this tissue plane was followed completely around the lesser curvature thus separating the clasp fibers from underlying submucosa. The clasp fiber complex was removed from the sling fiber complex by sharp dissection and cut into 10-12 smooth muscle strips approximately 3×3×8 mm with the long axis parallel to the direction of the muscle fibers. Similar muscle strips were cut from the middle of the sling fiber complex such that these strips were derived from the sling fibers in the cardiac notch. These smooth muscle strips were suspended in 10 ml muscle baths between platinum electrodes in Tyrode's solution continuously bubbled with 95% O2/5% CO2 and maintained at 37° C. The muscle strips were stretched to approximately 150% of their slack length which produced approximately 1 gram of basal tension and were then allowed to accommodate to the muscle bath for at least 60 minutes prior to investigation of contractile response.
(§2) Representative traces of the contractile response to 120 mM KCl in isotonic Tyrode's solution followed by a wash and 60 minute re-equilibration period then a cumulative concentration response curve to the selective muscarinic receptor agonist bethanechol (left) or the muscarinic and nicotinic agonist carbachol (right) is shown in FIG. 11. […]

Test [8] relates to human MEL fibers. Described as above. In kind it is cell-based.
From the text: as §1, §2

Test [9] concerns human LEC fibers. Nature of the test: bethanechol induced contraction of muscle strips, with or without antagonist (Schild analysis). Format: cell-based.
Test [10] concerns the target T1, M2 receptor (Homo sapiens, UniProt P08172).
T1 sequence (P08172 1-466): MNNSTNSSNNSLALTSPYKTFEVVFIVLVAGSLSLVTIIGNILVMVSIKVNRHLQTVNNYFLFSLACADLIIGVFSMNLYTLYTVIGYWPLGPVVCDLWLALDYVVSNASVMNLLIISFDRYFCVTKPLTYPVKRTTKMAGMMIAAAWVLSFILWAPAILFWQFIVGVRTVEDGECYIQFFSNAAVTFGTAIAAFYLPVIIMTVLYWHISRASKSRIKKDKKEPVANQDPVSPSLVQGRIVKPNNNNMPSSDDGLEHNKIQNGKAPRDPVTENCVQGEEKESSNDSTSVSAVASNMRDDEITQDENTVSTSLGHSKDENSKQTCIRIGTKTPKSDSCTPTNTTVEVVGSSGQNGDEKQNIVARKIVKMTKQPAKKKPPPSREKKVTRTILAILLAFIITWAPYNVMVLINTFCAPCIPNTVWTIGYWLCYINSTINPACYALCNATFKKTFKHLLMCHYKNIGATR
As to conditions: published value; cited from earlier work.

Test [11] deals with human clasp fibers. As to the kind of experiment: bethanechol induced contraction of muscle strips, with or without antagonist (Schild analysis). Format: cell-based.
The test system of test [12] is human MEL fibers. The description is as above. In kind it is cell-based.
The test system of test [13] is human sling fibers. Described as above. Format: cell-based.
Test [14] deals with human MEC fibers. Described as above. Format: cell-based.
Test [15] addresses M3 receptor (Homo sapiens, UniProt P20309). As to conditions: cited from earlier work.
Test [16] has as its system pig clasp fibers. Format: cell-based.
Test [17] deals with gastroesophageal junction high-pressure zone. As to conditions: in vivo; cited from earlier work.
For test [18] the test system is unchanged. Also noted: species or system human. As to conditions: in vivo, iv.
Where [19] appears, read: Barrett's esophagitis donors vs no GERD history.
[20] abbreviates: cumulative concentration response.
[21] abbreviates: mean ± SEM, read-out: BETH pEC50 (bethanechol potency) (converted).
The mark [22] stands for this setting: inhibitor 30 min, then carbachol rechallenge, others as in Table 6.

Structures are written as SMILES. “Also recorded” adds a separate entry of the source. Like-named read-outs stand apart in the source and are kept apart here.

Sequence of M3 receptor (P20309 whole entry): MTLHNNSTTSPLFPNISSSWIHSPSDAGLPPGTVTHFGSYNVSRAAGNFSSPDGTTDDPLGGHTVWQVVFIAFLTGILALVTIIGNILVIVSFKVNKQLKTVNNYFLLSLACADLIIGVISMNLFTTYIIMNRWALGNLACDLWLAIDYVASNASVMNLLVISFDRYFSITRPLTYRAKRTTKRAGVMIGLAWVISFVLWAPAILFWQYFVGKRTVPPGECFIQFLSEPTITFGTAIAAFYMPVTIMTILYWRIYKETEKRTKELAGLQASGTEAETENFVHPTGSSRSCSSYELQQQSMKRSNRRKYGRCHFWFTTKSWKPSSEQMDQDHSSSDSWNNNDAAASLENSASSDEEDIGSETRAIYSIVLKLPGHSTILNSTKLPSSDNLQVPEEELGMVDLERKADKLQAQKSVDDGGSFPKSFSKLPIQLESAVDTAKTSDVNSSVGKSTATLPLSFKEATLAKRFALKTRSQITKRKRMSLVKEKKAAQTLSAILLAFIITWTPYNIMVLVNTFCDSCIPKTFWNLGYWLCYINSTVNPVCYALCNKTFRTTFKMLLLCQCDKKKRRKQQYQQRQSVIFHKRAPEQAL

For the compound `C[N+](C)(C)CCCCCCCCCC[N+](C)(C)C` [decamethonium], the “inhibition of carbachol induced relaxation” value is listed as “inhibited” in test [1] ([…], others as in Table 6) and “inhibit” in test [2] ([…], others as in Table 6).

With `CN1CCCC1c1cccnc1` (stereo not drawn) [nicotine], the “nicotine induced relaxation of bethanechol pre-contracted fibers” value in [3] (human LEC fibers) is “relax”; in test [4] (human clasp fibers), “relax”; in [5] (human sling fibers, 30 μM bethanechol, 100 μM nicotine) it was “relax; also recorded: induces a relaxation”.

On to `CCN1C[C@]2(COC(=O)c3ccccc3N3C(=O)C[C@H](C)C3=O)CC[C@H](OC)[C@@]34[C@@H]5C[C@H]6[C@H](OC)[C@@H]5[C@](O)(C[C@@H]6OC)[C@@](O)([C@@H](OC)[C@H]23)[C@@H]14` [methyllycaconitine], for which the “inhibition of carbachol induced relaxation” value in [1] ([…], others as in Table 6) is recorded as “did not”; in test [1] ([…], others as in Table 6, listed as methyllycaconotine), “ineffective”. The “inhibition of nicotine induced relaxation” value in test [3], in test [4] and in [5] was “no inhibitory effect” in each case.

Regarding `C[N+](C)(C)CCOC(N)=O` [carbachol], the “maximal contractile response to carbachol, definite GERD” value in test [1] (setting [19]) and in test [6] (setting [19]) was “decreased” in each case. Besides, the “carbachol induced relaxations, probable and definite GERD” value in test [1] (carbachol higher than 100 μM) was “decreased”; in test [6] (carbachol higher than 100 μM), “higher”. Further, the “concentration above which abrupt relaxations were produced” value in test [1] (increasing carbachol concentrations (Example 9)) is “higher than 30 uM”. The “relaxation response to high carbachol concentration as a percentage of the maximal contractile response” value is on record as 131±6% in test [1] (mean±sem), 54±9% in test [6] (mean±sem) and 29±4% in [2] (mean±sem). In test [1] (p<0.05), the “carbachol-induced relaxations with high concentrations of carbachol, donors with GERD compared to non-GERD controls” value is on record as “significantly lower”. The “maximal carbachol induced contraction, donors with GERD compared to non-GERD donors” value in test [1] (p<0.05) is “significantly lower”. In addition, the “carbachol concentration at which relaxation response is observed” value in test [6] (setting [20]) and in test [2] (setting [20]) was no less than 300 µM throughout. The “carbachol induced relaxation, GERD compared to non-GERD controls” value in [2] is listed as “no difference”. For the same compound, the “carbachol induced relaxations, definite GERD” value in [2] (carbachol higher than 100 μM) is given as “greater”. Also, the “maximal carbachol induced contraction, donors with GERD compared to donors without GERD” value in test [2] (p<0.05) is given as “greater”. In addition, in [2] (vs no GERD history), the “contractility to carbachol, definite and probable GERD” value is listed as “increased”. Also, the “abrupt relaxation response to high carbachol concentrations” value in [7] and in [8] was “not observed” throughout.

With `CC(C[N+](C)(C)C)OC(N)=O` (stereo not drawn) [bethanechol], the “BETH MAX (maximal tension)” value in test [9] (mean ± SEM) is given as 0.92 ± 0.09 (n = 29); in test [11] (mean ± SEM), 1.20 ± 0.17 (n = 14) b d; in [12] (mean ± SEM), 1.37 ± 0.21 (n = 10); in test [13] (mean ± SEM), 2.18 ± 0.24 (n = 37) c d e; in test [14] (mean ± SEM), 0.79 ± 0.07 (n = 24) e. Further, the EC50 in test [9] (setting [21]) was 6.46 µM; in test [11] (setting [21]), 1.58 µM; in test [12] (setting [21]) it was 15.8 µM; in [13] (setting [21]), 10.5 µM; in [14] (setting [21]), 45.7 µM. For the same compound, the “KA (agonist dissociation constant) for M2” value in test [10] is 170 µM. In test [15] (published value), the “KA (agonist dissociation constant) for M3” value was 110 µM.

For the compound `CCCCCCCCCC[n+]1cccc([C@@H]2CCCN2C)c1.[I-]` [NDNI], in test [1] ([…], others as in Table 6), the “inhibition of carbachol induced relaxation” value is on record as “blocked”.

`CC(C)NCC(O)COc1cccc2ccccc12` (stereo not drawn) [propranolol]: the “inhibition of nicotine induced relaxation” value in test [5] (human sling fibers, 30 μM bethanechol then 100 μM nicotine, inhibitor 30 min) was “inhibited”.

For the compound `CC(=O)O[C@H]1C[C@@H]2CC[C@@H]3[C@H](CC[C@@]4(C)[C@H]3C[C@H]([N+]3(C)CCCCC3)[C@@H]4OC(C)=O)[C@@]2(C)C[C@@H]1[N+]1(C)CCCCC1` [pancuronium], the “inhibition of cholinergic agonist induced relaxation” value in test [16] ([…], 1E−5 molar) is “inhibited”.

On to `C[N+](C)(C)CCCCCC[N+](C)(C)C` [hexamethonium], for which the “inhibition of carbachol induced relaxation” value is “did not” in test [6] ([…]); “did not” in test [2] ([…], others as in Table 6); “inhibit” in test [2] ([…], others as in Table 6, listed as HEX).

`CC(=O)OCC[N+](C)(C)C` [acetylcholine]: the “concentration above which abrupt relaxations were produced” value in [16] (acetylcholine with physostigmine to block cholinesterase) is on record as “higher than 30 uM”.

On to `COc1ccccc1CNCCCCCCNCCCCCCCCNCCCCCCNCc1ccccc1OC` [methoctramine], for which the “potency (pA2) to inhibit bethanechol induced contraction” value in test [9] is 6.2±0.2; in [11], 6.3±0.2; in [12] it was 5.6±0.3; in test [13], 6.8±0.2; in test [14], 5.7±0.2. For the same compound, in test [15] (published affinity value), the “pKB M3” value was 6.6.

As to `COC(=O)[C@@H](N)CCCNC(=N)N[N+](=O)[O-]` [L-NAME], the “inhibition of carbachol induced relaxation” value is “inhibited” in [1] ([…], others as in Table 6) and “inhibited” in test [6] ([…]). For the same compound, in test [5], the “inhibition of nicotine induced relaxation” value is “inhibited”.

`NC1=N[C@H](O)[C@H]2[C@H]3O[C@]4(O)O[C@@H]([C@@H](O)[C@@]2(N1)[C@@H]4O)[C@]3(O)CO` [tetrodotoxin]: in test [5], the “inhibition of nicotine induced relaxation” value was “reduced the relaxation but not completely”.

Take `CC[N+](CC)(CC)CCOc1ccc(/C=C/c2ccccc2)cc1` [MG624]: the “inhibition of carbachol induced relaxation” value in [1] (setting [22]) is listed as “blocked”.

For the compound `CNC1(C)C2CCC(C2)C1(C)C` (stereo not drawn) [mecamylamine], the “inhibition of carbachol induced relaxation” value is reported as “inhibited; also recorded: blocked; also recorded: only partially effective” in test [1] (setting [22]); “inhibited” in test [6] (inhibitor 30 min, then carbachol rechallenge); “inhibited” in test [2] (setting [22]); “inhibit” in test [2] (inhibitor 30 min, then carbachol rechallenge, others as in Table 6, listed as MEC). Further, the “inhibition of nicotine induced relaxation” value in [3] (human LEC fibers, 30 μM bethanechol then 1 mM nicotine, MLA 10 nM, MECA 10 μM) is recorded as “significantly inhibited”; in test [4] (human clasp fibers, 30 μM bethanechol then 1 mM nicotine, MLA 10 nM, MECA 10 μM), “significantly inhibited”; in test [5] (human sling fibers, 30 μM bethanechol then 1 mM nicotine, MLA 10 nM, MECA 10 μM), “significantly inhibited”.

`CN1[C@@H]2CC[C@H]1C[C@@H](OC(=O)C(CO)c1ccccc1)C2` (stereo partly drawn) [atropine]: in [17], the “effect on the resting sphincteric pressure” value is given as “dose-dependent partial suppression”. Besides, the “effect on the pressure profile generated by placement of the plications” value in test [18] is “abolished”.

In the case of `COc1cc2c3cc1Oc1cc(ccc1O)C[C@@H]1c4c(cc(OC)c(O)c4Oc4ccc(cc4)C[C@@H]3N(C)CC2)CC[N+]1(C)C` [tubocurarine], the “inhibition of carbachol induced relaxation” value is recorded as “inhibited” in test [1] ([…], others as in Table 6) and “inhibit” in test [2] ([…], others as in Table 6).
